Series [1] is described as follows: Automated shake-flask logD7.4 assay (1-octanol/phosphate buffer pH 7.4). Format: physicochemical.
Protocol: The assay starts with transfer of individual compound solutions into pools of 10 compounds, alongside two pool QCs, using a Hamilton STARplus liquid handling workstation. […] This step combines 4 μL each of 10 mM compound solutions to a total of 48 μL in an intermediate plate (pool QCs are at 5 mM each). These and subsequent transfers as outlined below involve fresh pipetting tips to eliminate risks of cross-contamination.
The next assay step involves transfer of 500 μL octanol from a tray to an empty deep well plate, to which 10 μL of each pool is subsequently transferred and thoroughly mixed by repetitive aspiration and dispensing. An octanol-saturated phosphate buffer at pH 7.4 is then added (500 μL) followed by sealing of the content with a PP-based lid. Vigorous shaking of the content is achieved through vortexing for 30 s and equilibration of compound between the two phases is further established through a 3 h incubation on a plate shaker.
Following equilibration, the deep well plate is centrifuged to ensure separation between phases and the plate is next moved back to the Hamilton platform for sampling of 5 μL from the octanol phase. The sample is placed in a first dilution plate together with 495 μL of an AcN:H2O mix (1:2) containing FA (0.1%) and verapamil as internal standard (IS). The acidified and IS containing AcN solution, which is common for the logD7.4 and Sol assays, is referred to as the IS solution. The content is thoroughly mixed and next serially diluted to four additional plates with 10-fold dilutions to maximize the ability to detect weakly concentrated solutions and afford investigations of linearity in response.
After sampling, the remaining octanol is removed from the deep well plate through careful pipetting, followed by sampling from the aqueous buffer. […]
The plates are next brought to the MS instrumentation (Xevo TQS; Waters) and read out using the established UPLC-MS/MS methods. […]
On the set-up of series [2]: method as in PMID 19429424. Particulars: published dried DMSO assays; cited from earlier work.
The conditions of series [3]: QC control, literature value; cited from earlier work.
Series [4] can be described thus: Dried DMSO solubility assay (Sol), phosphate buffer pH 7.4. Format: physicochemical. The note with it: ATM inhibitor project.
Protocol: Unlike the logD7.4 assay compounds are not pooled, but instead 50 μL of individual DMSO stock solutions are transferred to glass vials kept in a 3D printed rack that facilitates subsequent liquid transfers using a 96-well pipetting head on the Hamilton STARplus platform. There is no pool QC in the Sol workflow, instead this is replaced with the inclusion of three QCs, the positioning of which is randomized for each week. Solvent is evaporated and the dried compounds are resolubilized in 500 μL of aqueous phosphate buffer at pH 7.4.
Individual Stir Stixs are added to each glass vial using a drop dispenser from V&P Scientific, Inc., a rubber mat is used to seal the vials, and samples are then equilibrated under mixing for 20–24 h. […]
The process of centrifugation and transfer is repeated to remove any remaining debris, except that the 20 μL supernatant transfer combines sampling and pooling of 10 samples to a pool plate with 200 μL of an IS solution (same as in logD7.4). […] Finally, sample and standard plates are sealed and read out, analyzed, and qualified as described for the logD7.4 assay. Calculated solubility values (in μM) are exported into our internal database ensuring global availability to users.
In series [5] the target is Ataxia Telangiectasia Mutated (ATM) kinase (Homo sapiens, UniProt Q13315). The note with it: ATM inhibitor project.
Chain of Ataxia Telangiectasia Mutated (ATM) kinase (Q13315 whole entry, species assumed, change not shown): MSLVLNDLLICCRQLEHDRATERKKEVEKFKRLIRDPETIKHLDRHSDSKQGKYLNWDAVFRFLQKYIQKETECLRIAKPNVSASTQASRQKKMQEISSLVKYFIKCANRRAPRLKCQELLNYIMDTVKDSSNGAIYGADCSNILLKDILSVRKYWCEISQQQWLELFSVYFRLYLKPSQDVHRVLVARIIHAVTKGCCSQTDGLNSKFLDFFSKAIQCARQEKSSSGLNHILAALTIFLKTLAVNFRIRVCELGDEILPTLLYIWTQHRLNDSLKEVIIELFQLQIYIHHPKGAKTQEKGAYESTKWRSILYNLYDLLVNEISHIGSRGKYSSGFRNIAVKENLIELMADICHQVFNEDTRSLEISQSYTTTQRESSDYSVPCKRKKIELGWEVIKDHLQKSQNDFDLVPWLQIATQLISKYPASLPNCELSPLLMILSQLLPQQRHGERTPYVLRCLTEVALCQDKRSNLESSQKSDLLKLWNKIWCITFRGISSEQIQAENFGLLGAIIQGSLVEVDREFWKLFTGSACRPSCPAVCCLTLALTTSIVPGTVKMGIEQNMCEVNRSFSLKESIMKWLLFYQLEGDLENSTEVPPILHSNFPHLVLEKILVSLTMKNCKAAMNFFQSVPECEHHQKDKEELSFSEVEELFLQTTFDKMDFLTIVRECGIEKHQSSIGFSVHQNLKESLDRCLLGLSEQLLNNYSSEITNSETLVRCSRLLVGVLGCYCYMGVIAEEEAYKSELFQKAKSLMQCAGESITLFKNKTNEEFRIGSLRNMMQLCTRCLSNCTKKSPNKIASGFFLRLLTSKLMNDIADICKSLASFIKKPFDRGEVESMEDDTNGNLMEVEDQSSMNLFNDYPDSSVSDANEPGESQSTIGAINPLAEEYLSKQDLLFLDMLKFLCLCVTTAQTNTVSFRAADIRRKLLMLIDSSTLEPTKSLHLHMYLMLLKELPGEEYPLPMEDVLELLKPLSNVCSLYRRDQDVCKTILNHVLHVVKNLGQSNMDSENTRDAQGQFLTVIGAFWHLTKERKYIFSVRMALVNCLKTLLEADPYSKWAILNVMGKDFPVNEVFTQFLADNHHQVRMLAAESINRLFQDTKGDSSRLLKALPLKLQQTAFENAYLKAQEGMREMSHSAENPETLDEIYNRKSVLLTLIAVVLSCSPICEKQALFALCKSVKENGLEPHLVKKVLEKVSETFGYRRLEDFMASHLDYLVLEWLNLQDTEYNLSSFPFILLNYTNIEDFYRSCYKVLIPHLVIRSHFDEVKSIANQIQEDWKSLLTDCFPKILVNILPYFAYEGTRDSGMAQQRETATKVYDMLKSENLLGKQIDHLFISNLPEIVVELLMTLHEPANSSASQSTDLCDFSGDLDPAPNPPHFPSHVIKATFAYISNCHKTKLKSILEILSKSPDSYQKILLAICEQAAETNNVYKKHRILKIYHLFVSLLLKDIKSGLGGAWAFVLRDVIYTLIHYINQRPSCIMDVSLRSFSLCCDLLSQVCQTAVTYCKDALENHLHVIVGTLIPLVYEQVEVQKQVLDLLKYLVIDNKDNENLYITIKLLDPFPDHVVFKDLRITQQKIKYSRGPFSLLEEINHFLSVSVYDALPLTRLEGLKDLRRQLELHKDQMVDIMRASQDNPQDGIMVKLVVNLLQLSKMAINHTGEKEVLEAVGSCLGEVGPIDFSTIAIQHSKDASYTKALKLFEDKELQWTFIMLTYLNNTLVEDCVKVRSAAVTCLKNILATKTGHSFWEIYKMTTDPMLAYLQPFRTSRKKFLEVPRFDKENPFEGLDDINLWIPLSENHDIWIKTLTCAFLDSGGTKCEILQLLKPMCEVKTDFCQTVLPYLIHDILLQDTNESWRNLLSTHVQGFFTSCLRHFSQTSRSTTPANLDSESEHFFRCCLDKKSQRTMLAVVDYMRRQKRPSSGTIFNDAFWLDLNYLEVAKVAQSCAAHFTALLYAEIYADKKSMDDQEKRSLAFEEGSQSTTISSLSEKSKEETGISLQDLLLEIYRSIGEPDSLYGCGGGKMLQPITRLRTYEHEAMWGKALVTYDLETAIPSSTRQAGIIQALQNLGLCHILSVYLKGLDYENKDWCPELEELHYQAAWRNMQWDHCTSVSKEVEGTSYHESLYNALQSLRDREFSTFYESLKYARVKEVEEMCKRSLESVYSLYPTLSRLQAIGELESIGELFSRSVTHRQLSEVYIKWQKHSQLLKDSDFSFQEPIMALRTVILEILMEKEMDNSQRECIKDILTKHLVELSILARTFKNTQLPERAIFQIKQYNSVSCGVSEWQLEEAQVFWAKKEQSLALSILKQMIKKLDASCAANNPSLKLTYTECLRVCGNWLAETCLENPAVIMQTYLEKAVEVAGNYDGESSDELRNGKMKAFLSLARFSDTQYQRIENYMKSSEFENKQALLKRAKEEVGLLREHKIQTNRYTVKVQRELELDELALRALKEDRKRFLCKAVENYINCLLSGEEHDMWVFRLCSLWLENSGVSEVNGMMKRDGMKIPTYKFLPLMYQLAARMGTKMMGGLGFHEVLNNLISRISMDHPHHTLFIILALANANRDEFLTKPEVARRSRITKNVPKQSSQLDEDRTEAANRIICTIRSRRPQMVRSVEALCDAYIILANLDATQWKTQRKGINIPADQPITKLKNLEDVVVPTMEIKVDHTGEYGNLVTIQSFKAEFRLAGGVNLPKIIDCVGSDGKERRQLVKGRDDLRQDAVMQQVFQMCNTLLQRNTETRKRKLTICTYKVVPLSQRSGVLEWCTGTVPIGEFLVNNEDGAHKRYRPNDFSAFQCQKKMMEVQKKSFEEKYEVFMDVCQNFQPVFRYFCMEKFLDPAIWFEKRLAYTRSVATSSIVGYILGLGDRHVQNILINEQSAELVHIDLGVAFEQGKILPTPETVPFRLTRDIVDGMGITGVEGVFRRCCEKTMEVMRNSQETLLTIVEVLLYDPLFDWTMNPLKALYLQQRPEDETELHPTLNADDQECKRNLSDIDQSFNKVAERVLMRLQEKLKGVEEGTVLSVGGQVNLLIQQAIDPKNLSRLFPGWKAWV
For the next series, the system named is human plasma. The note with it: cited from earlier work.

As a reminder, the logD is the decadic logarithm of the distribution of all forms, ionised or not, between an organic phase and buffer at a given pH. Low readings indicate a more hydrophilic compound, high ones a more lipophilic compound. One may read the solubility as how much of the substance goes into solution per volume.

In brackets after ≈: the same amount, converted by molar mass. Like-named read-outs stand apart in the source and are kept apart here.

In series [1] (pH 7.4, ATM inhibitor project, DMPK Wave 1 panel), `CC(C)n1c(=O)n(C)c2cnc3cc(F)c(-c4ccc(OCCCN5CCCCC5)nc4)cc3c21` registered a log distribution coefficient (logD) at 3 h of 2.7.

`COc1ccc(CCN2CCC(Nc3nc4ccccc4n3Cc3ccc(F)cc3)CC2)cc1` [astemizole, Astemizole]: the solubility in series [2] is 2.9 µM (≈ 1.33 µg/mL).

`CN(C)CCCN1c2ccccc2Sc2ccc(Cl)cc21` [chlorpromazine, Chlorpromazine]: the solubility in series [2] was 450 µM (≈ 143 µg/mL).

For `CN(C)CCC=C1c2ccccc2C=Cc2ccccc21` [cyclobenzaprine, Cyclobenzaprine], the logD7.4 in series [3] is on record as 2.8.

As for `CCC(CC)CNc1c(C(N)=O)cnc2ccc(C#N)cc12` [initial starting point], in series [4], the “solubility (in words)” value is on record as “low μM solubility”. For the same compound, the “potency on the target protein (in words)” value in series [5] was “μM potency”. The same compound came in with a logD7.4 in series [1] (ATM inhibitor project, DMPK Wave 1 panel) of 3.5.

As to `COCCc1ccc(OCC(O)CNC(C)C)cc1` (centres unmarked) [metoprolol, Metoprolol], in the series on human plasma, the “fu (fraction unbound)” value was ~85%.

In series [1] (1-octanol/phosphate buffer pH 7.4, pH 7.4, QC control, in-house data), `COC(=O)C1=C(C)NC(C)=C(C(=O)OCCN(C)Cc2ccccc2)C1c1cccc([N+](=O)[O-])c1` (centres unmarked) [nicardipine, Nicardipine] had a log distribution coefficient (logD) at 3 h of 4.5.

With `O=C1NC(=O)C(c2ccccc2)(c2ccccc2)N1` [phenytoin, Phenytoin], in series [2], the solubility is 86 µM (≈ 21.7 µg/mL).

With `CC(=O)CC(c1ccccc1)c1c(O)c2ccccc2oc1=O` (centres unmarked) [warfarin, Warfarin], the “fu (fraction unbound)” value with human plasma is reported as ~1%.

Values taken from paper PMC7567642, “A Fully Integrated Assay Panel for Early Drug Metabolism and Pharmacokinetics Profiling” (Assay and Drug Development Technologies, 2020).
